The test system of data set [1] is LPS induced IL-6 secretion from whole blood. Nature of the data set: Measurement of LPS Induced IL-6 Secretion from Whole Blood. In kind it is cell-based. The conditions noted are these: LPS 200 ng/ml, 24 hours, immunoassay, read-out: pIC50 (IL-6 levels) (converted). The procedure:
Activation of monocytic cells by agonists of toll-like receptors such as bacterial lipopolysaccharide (LPS) results in production of key inflammatory mediators including IL-6. Such pathways are widely considered to be central to the pathophysiology of a range of auto-immune and inflammatory disorders.
After further incubation for 24 hours at 37 degrees, 140 ul of PBS are added to each well. The plates are sealed, shaken for 10 minutes and then centrifuged (2500 rpm×10 min). 100 ul of the supernatant are removed and IL-6 levels assayed by immunoassay (typically by MesoScale Discovery technology) either immediately or following storage at −20 degrees.

As a reminder, the melting point is the temperature of the solid-liquid transition.

Take `Cc1nnc2n1-c1ccc(O)cc1C(c1ccc(Cl)cc1)=N[C@H]2CC(=O)Nc1ccc(F)cc1`: the melting point is 222 °C (dec.). Same read-out and setting: in the case of `COc1ccc2c(c1)C(c1ccc(Cl)cc1)=N[C@@H](CC(=O)NC1CCCCC1)c1nnc(C)n1-2` (stereo in doubt) it was greater than 260 °C. The compound `COc1ccc2c(c1)C(c1ccc(Cl)cc1)=N[C@@H](CC(=O)Nc1ccccc1F)c1nnc(C)n1-2` [Example 9, 2-[(4S)-6-(4-chlorophenyl)-1-methyl-8-(methyloxy)-4H-[1,2,4]triazolo[4,3-a][1,4]benzodiazepin-4-yl]-N-(2-fluorophenyl)acetamide] came in with a melting point of 264 °C. Besides, the IC50 in data set [1] was no more than 10 µM. `COc1ccc2c(c1)C(c1ccc(Cl)cc1)=N[C@@H](CC(=O)Nc1cccc(F)c1)c1nnc(C)n1-2` [Example 10, 2-[(4S)-6-(4-chlorophenyl)-1-methyl-8-(methyloxy)-4H-[1,2,4]triazolo[4,3-a][1,4]benzodiazepin-4-yl]-N-(3-fluorophenyl)acetamide] had a melting point of 248 °C. Further, the IC50 in data set [1] is no more than 10 µM.

Turning to `COc1ccc2c(c1)C(c1ccc(Cl)cc1)=N[C@@H](CC(=O)Nc1ccncc1)c1nnc(C)n1-2` [Example 14, 2-[(4S)-6-(4-chlorophenyl)-1-methyl-8-(methyloxy)-4H-[1,2,4]triazolo[4,3-a][1,4]benzodiazepin-4-yl]-N-4-pyridinylacetamide], the melting point is 223 °C.

The compound `COc1ccc2c(c1)C(c1ccc(Cl)cc1)=N[C@@H](CC(=O)Nc1nccs1)c1nnc(C)n1-2` [Example 15, 2-[(4S)-6-(4-chlorophenyl)-1-methyl-8-(methyloxy)-4H-[1,2,4]triazolo[4,3-a][1,4]benzodiazepin-4-yl]-N-1,3-thiazol-2-ylacetamide] yielded a melting point of 249 °C. The IC50 in data set [1] is no more than 10 µM. As for `COc1ccc2c(c1)C(c1ccc(Cl)cc1)=NC(CC(=O)Nc1nccs1)c1nnc(C)n1-2` (stereo not drawn) [Example 64], the IC50 in data set [1] was no more than 10 µM. Turning to `COc1ccc2c(c1)C(c1ccc(Cl)cc1)=NC(CC(=O)Nc1ccc(F)cc1)c1nnc(C)n1-2` (stereo not drawn) [Example 67], the IC50 in data set [1] is no more than 10 µM. Regarding `CCNC(=O)C[C@@H]1N=C(c2ccc(Cl)cc2)c2ccc(OC)cc2-n2c(C)nnc21` [Example 69], the IC50 in data set [1] is no more than 10 µM.

The values above are taken from patent publication US9598420B2, “Benzodiazepine bromodomain inhibitor” (GlaxoSmithKline LLC, priority 2009, dated 2017).
